Laboratory results published in patent publication US9598434B2, “Benzazepine compound” (Astellas Pharma Inc., priority 2010, dated 2017).
Where two headings read alike, the source gives them in different places.

Tests used:
[1] = biological target: T1, human 5-HT2C receptor (Homo sapiens, UniProt P28335); test: Evaluation of 5-HT2C receptor agonist activity (intracellular calcium increase, FLIPR, CHO cells stably expressing the receptor); assay type: cell-based; conditions: for Emax: read-out: 5-HT2C agonist activity Emax
T1 construct: expressed in transfected cells
T1 sequence (P28335 33-458): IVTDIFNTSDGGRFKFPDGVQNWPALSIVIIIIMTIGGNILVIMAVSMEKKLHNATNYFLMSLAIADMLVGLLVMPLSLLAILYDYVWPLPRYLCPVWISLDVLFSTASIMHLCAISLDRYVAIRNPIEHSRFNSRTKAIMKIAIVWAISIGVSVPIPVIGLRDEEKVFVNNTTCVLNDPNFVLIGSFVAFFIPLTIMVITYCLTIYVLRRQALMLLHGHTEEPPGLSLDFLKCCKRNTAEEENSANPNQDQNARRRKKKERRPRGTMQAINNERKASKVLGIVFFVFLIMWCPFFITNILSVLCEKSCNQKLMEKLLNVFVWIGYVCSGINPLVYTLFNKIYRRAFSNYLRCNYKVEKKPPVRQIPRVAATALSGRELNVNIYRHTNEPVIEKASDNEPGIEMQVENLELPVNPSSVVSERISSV
Protocol: The agonist activity of the compound of the formula (I) on the 5-HT2C receptor was confirmed by the method shown below.
The human 5-HT2C receptor agonist activity was evaluated by measuring the increase of the ligand-dependent intracellular calcium concentration. CHO cells which stably expressing a human 5-HT2C receptor were used. The receptor-expressing cells were prepared by transfecting the genes of the human 5-HT2C receptor (Accession numbers: AF498983 (5-HT2C)) into CHO cells (dihydrofolic acid-deficient strain, DS Pharma Biomedical Co., Ltd.)) using a pEF-BOS vector (Nucleic Acids Research, vol. 18, No. 17). After transcription, the 5-HT2C is known to be subjected to RNA editing to cause differences in three kinds of amino acids, resulting in fourteen receptor isoforms. Among them, cells stably expressing an INI type of 5-HT2C receptor which had not been subjected to editing were used. Cells used for evaluation were cultured in a 10% fetal bovine serum (FBS)-containing medium (trade name: α-MEM, Invitrogen) at 37° C. and 5% carbon dioxide. On the day before the evaluation, the cells were suspended in a serum-free medium (trade name: CD-CHO, Invitrogen) containing 8 mM L-glutamine (trade name: L-glutamine 200 mM, Invitrogen, added to the medium at a final concentration of 8 mM) and dispensed into a 96-well poly-D-lysine-coated plate (trade name: Biocoat PDL96W Black/Clear, Japan Becton, Dickinson and Company)) at 4×10^4 cells/well and cultured at 37° C. and 5% carbon dioxide overnight. A solution including a washing solution (mixture of Hank's Balanced Salt Solution (HBSS)-sodium hydroxide (NaOH), 20 mM 2-[4-(2-hydroxyethyl)-1-piperazinyl]ethanesulfonic acid (HEPES)-sodium hydroxide (NaOH), 2.5 mM probenecid, and 0.1% bovine serum albumin (BSA)), and a 4 μM fluorescent reagent (trade name: Fluo4-AM, Dojindo Co., Ltd.) was used as a loading buffer and the medium of the 96-well plate which had been cultured overnight was replaced with a loading buffer. After leaving to stand (with light-shielding) at room temperature for 3 hours, the cells were washed with a plate washer (trade name: ELx405, BioTek Instruments, Inc.) in which a washing solution had been set up. The plates of the washed cells were set up in a system for measuring a calcium (Ca) concentration in a cell (trade name: FLIPR, Molecular Devices, Inc.). In this device, a test compound that had been dissolved in dimethyl sulfoxide and diluted in the washing solution at a predetermined concentration was added and set up to measure a change in the Ca concentrations in a cell. The difference between a maximum value and a minimum value in the change of the intracellular Ca concentration was determined and kept as measurement data.
Taking the maximum reaction of the 5-HT (agonist action with addition of 5-HT 10 μM) as 100% and the reaction of a solvent alone as 0%, the efficacy (Emax (%)) and potency (EC50 (nM)) of the present invention compound to the maximum reaction of the 5-HT were calculated with a logistic regression method.

[2] = test system: Hartley female guinea pigs; test: Measurement of external urethral sphincter electromyography; assay type: in vivo, guinea pig; conditions: Cavia porcellus; intravenous administration at 3 mg/kg; urethane-anesthetized guinea pigs; activity after solvent taken as 100%; read-out: external urethral sphincter electromyography activity
Excerpt: The activating action of the compound of the formula (I) on the urethral sphincter electromyography was confirmed with the method shown below.
Hartley female guinea pigs with a body weight of 250 to 350 g were anesthetized with urethane (Sigma). The guinea pigs were fixed in a supine position and catheters (PE-50; Clay Adams) for administration of test compounds were inserted into the jugular vein. Further, a catheters (PE-160; Clay Adams), for an infusion of physiological saline into bladder and measurement of the intravesical pressure, were inserted through an incision into the dome of the bladder. Further, in order to measure the external urethral sphincter electromyography, two electrodes were inserted into both the left and right sides of the urethral opening to the urethral sphincter. The electrodes for measuring base voltages were placed under the skin of the hind part. The bladder catheter was branched over a three-way stopcock, and one was connected with a 50 mL syringe (Terumo) fixed to an infusion pump (Terumo). The other was connected to a pressure transducer (DX-100; Nihon Kohden Corporation) to transfer the signal of the transducer through an amplifier (AP-630G; Nihon Kohden Corporation) and a data acquisition system (PowerLab; AD Instruments) to a computer and record on a hard disk. The electrodes for electromyography measurement were connected to a control unit (JB-101J; Nihon Kohden Corporation) to transfer the signal through an amplifier (AP-651J; Nihon Kohden Corporation) and a data acquisition system (PowerLab; AD Instruments) to a computer and record on a hard disk. Further, the data were analyzed on the computer using a software (Chart; AD Instruments). […] The electromyography activity was analyzed by taking the lowest potential amplitude as a standard during the stabilization period and using the firing frequency over the standard amplitude as an indicator. At internals between the respective urinations (urine filling phase), the activity of the urethral sphincter electromyography was analyzed and its average value was calculated. After the stabilization period, the solvent and the test compound were administered at an increased dose at an interval of 40 minutes through the catheter placed into the jugular vein. The urethral sphincter electromyography activity after the administration of the solvent was taken as 100% and the urethral sphincter electromyography activity after the administration of the test compound was denoted as a percentage (%) of the electromyography activity after the administration of the solvent.

[3] = CHO cells stably expressing INI type human 5-HT2C receptor, intracellular Ca increase, logistic regression, read-out: 5-HT2C agonist activity EC50
[4] = maximum reaction of 5-HT (10 μM) taken as 100%, solvent alone as 0%, CHO cells expressing INI type human 5-HT2C receptor

Structure (SMILES)	melting point [°C]	EC50 [1, 3] [nM]	Emax ([1]; CHO) [%]	EC50 [1] [nM]	Emax [1, 4] [%]	response vs control in vivo at 3 mg/kg [2] [%]
O=C1CCc2cc3c(c(Cl)c2N1)CCNCC3 [Example 1, 11-chloro-1,3,4,6,7,8,9,10-octahydro-2H-azepino[4,5-g]quinolin-2-one]	165 to 167					
CC(C)CN1CCCc2cc3c(c(Cl)c21)CCNCC3.O=C(O)/C=C/C(=O)O [Example 2, 11-chloro-1-isobutyl-2,3,4,6,7,8,9,10-octahydro-1H-azepino[4,5-g]quinoline monofumarate]	159 to 163	0.64	99			
CCN1CCCc2cc3c(c(Cl)c21)CCNCC3.Cl [Example 16]	221 to 223		109	1.5		
CC(C)C(=O)N1CCCc2cc3c(c(Cl)c21)CCNCC3.Cl [Example 21]	245 to 249	0.81	101			
CC(=O)N1CCCc2cc3c(cc21)CCNCC3.O=C(O)/C=C/C(=O)O [Example 33]	159 to 162	32.9	94			
CN1CCOc2cc3c(c(Br)c21)CCNCC3.O=C(O)/C=C/C(=O)O [Example 35]	200 to 204		100	0.42		
c1c2c(c(C3CC3)c3c1OCCN3)CCNCC2 [Example 36]	193 to 197	12			97	
CC(C)CN1CCCc2cc3c(cc21)CCNCC3 [Example 38]		2.1	94			≥ 200
Clc1c2c(cc3c1N(CC1CCC1)CCC3)CCNCC2 [Example 42]	141 to 143		97	1.9		
Clc1c2c(cc3c1N(CC1CCCC1)CCC3)CCNCC2 [Example 45]	151 to 153		107	3.9		
CC1CNc2cc3c(cc2O1)CCNCC3 (centres unmarked) [Example 50]	193 to 194		98	68		
c1c2c(cc3c1OCCN3CC1CC1)CCNCC2 [Example 56]	179 to 182	3.2			112	
CC(C)CN1CCOc2cc3c(cc21)CCNCC3 [Example 58]		4			117	
CC(C)OCCN1CCOc2cc3c(cc21)CCNCC3 [Example 76]		1.9	116			
COCCN1CCOc2cc3c(c(-c4cccc(C)c4)c21)CCNCC3.O=C(O)/C=C/C(=O)O [Example 78]	173 to 176	36	98			
COCCN1CCCc2cc3c(c(C4CC4)c21)CCNCC3 [Example 81]		0.84	114			≥ 200
COCCN1CCOc2cc3c(c(C4CC4)c21)CCNCC3 [Example 88]		1.1	105			≥ 200
COCCN1CCOc2cc3c(c(C)c21)CCNCC3.O=C(O)/C=C/C(=O)O [Example 90]	166 to 170	8.3	113			
